For this experiment, the target named is Alpha-glucosidase (Saccharomyces cerevisiae S288c, UniProt P53341+P38158+P07265). Briefly: Inhibition of Saccharomyces cerevisiae alpha-glucosidase using nitrophenol-alpha-D-glucopyranoside (pNPG) as substrate incubated for 15 mins. The format is protein assay.

Each structure is given as a SMILES string.

Four molecules from ChEMBL document CHEMBL5634160, “Synthesis, biological evaluation and action mechanism of 7H-[1,2,4] triazolo [3,4-b] [1,3,4] thiadiazine-phenylhydrazone derivatives as α-glucosidase inhibitors” (Eur J Med Chem, 2023) can be followed below.

In general, IC50 refers to the concentration needed to halve the response being measured. The molecule `Oc1cccc(/C=N/Nc2nnc3n2N=C(c2ccccc2)CS3)c1` returned an IC50 of 135.7 µM.
In turn, `CN(C)c1ccc(/C=N/Nc2nnc3n2N=C(c2ccccc2)CS3)cc1` returned an IC50 of 35.58 µM.
The figure for `COc1ccccc1/C=N/Nc1nnc2n1N=C(c1ccccc1)CS2` is 114.9 µM; for `Clc1cccc(/C=N/Nc2nnc3n2N=C(c2ccccc2)CS3)c1` it is 42.36 µM.
